For data set [1], the system named is HepG2. As to the kind of experiment: MTT cytotoxicity, HepG2. It counts as cell-based. The conditions noted are these: Homo sapiens, mean ± SD. The procedure:
(§1) The cytotoxic activities of the constructed members were assessed via the reported MTT method[49–52] (Supporting information).
(§2) The cytotoxic screening was performed using the MTT assay. […] Besides, the HCT-116 one was sensitive to only two samples, while the MCF7 was sensitive to one sample only. Two standard cytotoxic drugs: Dox and 5-fluorouracil (5-FU) were also applied on the same used cancer cell lines as references.

Data set [2] has as its system A-549. The experiment in a line: MTT cytotoxicity, A-549. Type of data set: cell-based. The conditions noted are these: Homo sapiens, A549, mean ± SD. The procedure: as §1, §2
Data set [3] has as its system Caco-2. The experiment in a line: MTT cytotoxicity, Caco-2. Type of data set: cell-based. The following applies: Homo sapiens, mean ± SD. How it is done: as §1, §2
The target in data set [4] is T1, Topo I (Homo sapiens, UniProt P11387).
T1 sequence (P11387 1-765): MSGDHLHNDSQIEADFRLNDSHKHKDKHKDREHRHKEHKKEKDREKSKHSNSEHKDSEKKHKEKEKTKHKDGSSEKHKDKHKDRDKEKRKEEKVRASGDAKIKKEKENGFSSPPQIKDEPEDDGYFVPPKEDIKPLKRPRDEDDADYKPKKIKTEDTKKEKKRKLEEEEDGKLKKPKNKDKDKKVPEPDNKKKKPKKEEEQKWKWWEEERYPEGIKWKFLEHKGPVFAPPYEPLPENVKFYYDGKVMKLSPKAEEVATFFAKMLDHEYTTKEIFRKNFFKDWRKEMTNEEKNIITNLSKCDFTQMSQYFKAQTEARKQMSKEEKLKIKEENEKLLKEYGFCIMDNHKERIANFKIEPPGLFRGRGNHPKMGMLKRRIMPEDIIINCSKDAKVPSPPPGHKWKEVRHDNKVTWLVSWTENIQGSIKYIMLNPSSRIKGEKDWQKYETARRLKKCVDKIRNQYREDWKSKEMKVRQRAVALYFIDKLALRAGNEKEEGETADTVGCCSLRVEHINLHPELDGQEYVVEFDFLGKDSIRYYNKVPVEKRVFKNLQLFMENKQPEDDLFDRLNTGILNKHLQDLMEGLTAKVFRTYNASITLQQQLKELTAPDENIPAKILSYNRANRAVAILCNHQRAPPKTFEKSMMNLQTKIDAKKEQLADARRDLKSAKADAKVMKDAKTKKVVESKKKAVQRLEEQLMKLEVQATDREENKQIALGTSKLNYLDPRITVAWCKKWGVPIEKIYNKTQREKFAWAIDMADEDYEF
As to the kind of experiment: Topo I inhibitory assay. It counts as biochemical. The procedure: (§3) The tested members were subjected to Topo I inhibitory activity evaluation using the previously reported method. While the Topo II inhibitory assay was done according to the method described by Patra et al.[55] (Supporting information).
(§4) Thus, compounds 5b and 7d in addition to their nano complexes 5b NPs and 7d NPs were evaluated for their enzyme inhibitory effects.

Data set [5] has as its system DNA. As to the kind of experiment: DNA intercalation assay (linear DNA formation). It counts as biochemical. The following applies: even at low concentrations; gel. How it is done:
The reported procedure by Atwal et al. was our guide to test the DNA intercalating ability of our candidates[56] (Supporting information).
The ability of the designed members to intercalate onto the DNA molecules and increase the levels of Topo I–DNA as well as Topo II-DNA cleavage complexes by stabilising the enzymes–DNA covalent complexes were also assayed. Thus, the amount of linear DNA formed by compounds 5b and 7d, in addition to their nanoforms 5b NPs and 7d NPs, was measured. […] As so, the designed congeners were then considered promising DNA intercalating members (Figure 11).

Data set [6] has as its system Topo II. The experiment in a line: Topo II inhibitory assay. Type of data set: biochemical. The procedure:
as §3, §4

Data set [7] concerns HCT-116. The experiment in a line: MTT cytotoxicity, HCT-116. The following applies: Homo sapiens, mean ± SD. It counts as cell-based. The procedure:
as §1, §2

Data set [8] in a line: Cytotoxic effects on normal bone marrow cells. The following applies: mouse, mean ± SD. It counts as cell-based, mice. How it is done:
as §1
The dose–response curves for the nanoform on each cell line are shown in the Supporting information, and the respective IC50s are shown in Table 3. The most promising cytotoxic samples were further investigated for their cytotoxic effects on normal mice bone marrow cells. The overall trending results were increasing the proliferation of the bone marrow cells at high concentrations of the samples, especially the 5b NPs nanoform sample, which reached up to 200% compared to the untreated cells. The dose–response curves on the bone marrow cells are represented in the Supporting information.

The test system of data set [9] is MCF7. The experiment in a line: MTT cytotoxicity, MCF7. The conditions noted are these: Homo sapiens, mean ± SD. It counts as cell-based. The procedure:
as §1, §2

The values below come from paper PMC10444021, “Design and synthesis of new spirooxindole candidates and their selenium nanoparticles as potential dual Topo I/II inhibitors, DNA intercalators, and apoptotic inducers” (Journal of Enzyme Inhibition and Medicinal Chemistry, 2023).

In brackets after ≈: the same amount, converted by molar mass.

In turn, `O=C1Nc2ccc([N+](=O)[O-])cc2C12c1c(n(Cc3ccccc3)c(=O)[nH]c1=O)Nc1c2c(=O)[nH]c(=O)n1Cc1ccccc1` [Compound 5d, 1′,9′-Dibenzyl-5-nitro-1′H-spiro[indoline-3,5′-pyrido[2,3-d:6,5-d′]dipyrimidine]-2,2′,4′,6′,8′(3′H,7′H,9′H,10′H)-pentaone] came in with a melting point of more than 300 °C. This compound also displayed an IC50 in data set [1] of 422 ± 22.8 µg/mL (≈ 713 µM). Also, the IC50 in data set [2] amounted to 279 ± 18.9 µg/mL (≈ 472 µM). The compound also had an IC50 in data set [3] of 108 ± 10 µg/mL (≈ 183 µM).
Compound `Cn1c2c(c(=O)[nH]c1=S)C1(C(=O)Nc3ccc(Cl)cc31)c1c(n(C)c(=S)[nH]c1=O)N2` [Compound 7c, 5-Chloro-1′,9′-dimethyl-2′,8′-dithioxo-2′,3′,8′,9′-tetrahydro-1′H-spiro[indoline-3,5′-pyrido [2,3-d:6,5-d′]dipyrimidine]-2,4′,6′(7′H,10′H)-trione] had a melting point of more than 300 °C.
The compound `Cn1c2c(c(=O)[nH]c1=O)C1(C(=O)Nc3ccc([N+](=O)[O-])cc31)c1c(n(C)c(=O)[nH]c1=O)N2` [Compound 5a, 1′,9′-Dimethyl-5-nitro-1′H-spiro[indoline-3,5′-pyrido[2,3-d:6,5-d′]dipyrimidine]-2,2′,4′,6′,8′(3′H,7′H,9′H,10′H)-pentaone] came in with a melting point of more than 300 °C. In data set [1], this compound came in with an IC50 of 563 ± 25.5 µg/mL (≈ 1280 µM). This compound gave an IC50 in [3] of 207 ± 19.4 µg/mL (≈ 471 µM).
`Cn1c2c(c(=O)[nH]c1=O)C1(C(=O)Nc3ccc(F)cc31)c1c(n(C)c(=O)[nH]c1=O)N2` [Compound 9b, 5-Fluoro-1′,9′-dimethyl-1′H-spiro[indoline-3,5′-pyrido[2,3-d:6,5-d′]dipyrimidine]-2,2′,4′,6′,8′(3′H,7′H,9′H,10′H)-pentaone] showed a melting point of more than 300 °C. Moreover, inhibition in data set [1] was half-maximal at 86.4 ± 7.4 µg/mL (≈ 210 µM) (IC50). The compound further came in with an IC50 in [2] of 293 ± 15.4 µg/mL (≈ 710 µM). This compound also gave a half-maximal inhibitory concentration (IC50) in data set [3] of 492 ± 40.4 µg/mL (≈ 1190 µM).
For the compound `Cn1c2c(c(=O)[nH]c1=O)C1(C(=O)Nc3ccc(Cl)cc31)c1c(n(C)c(=O)[nH]c1=O)N2` [Compound 7a, 5-Chloro-1′,9′-dimethyl-1′H-spiro[indoline-3,5′-pyrido[2,3-d:6,5-d′]dipyrimidine]-2,2′,4′, 6′,8′(3′H,7′H,9′H,10′H)-pentaone], the IC50 in [1] is 120 ± 9.2 µg/mL (≈ 281 µM); in data set [2], 50.1 ± 5.9 µg/mL (≈ 117 µM); in data set [3], 113 ± 10.4 µg/mL (≈ 263 µM).
Turning to `O=C1Nc2ccc(Cl)cc2C12c1c(n(Cc3ccccc3)c(=O)[nH]c1=O)Nc1c2c(=O)[nH]c(=O)n1Cc1ccccc1` [Compound 7d, 1′,9′-Dibenzyl-5-chloro-1′H-spiro[indoline-3,5′-pyrido[2,3-d:6,5-d′]dipyrimidine]-2,2′,4′, 6′,8′(3′H,7′H,9′H,10′H)-pentaone], the IC50 in data set [4] is 0.419 µM; in [1], 91.4 ± 11.3 µg/mL (≈ 157 µM); in data set [2] it was 329 ± 12.5 µg/mL (≈ 566 µM); in [6], 2.66 µM. Moreover, the “formation of linear DNA” value in data set [5] is listed as “considerable formation of linear DNA”.
In turn, `CCn1c2c(c(=O)[nH]c1=O)C1(C(=O)Nc3ccccc31)c1c(n(CC)c(=O)[nH]c1=O)N2` [Compound 3, 1′,9′-Diethyl-1′H-spiro[indoline-3,5′-pyrido[2,3-d:6,5-d′]dipyrimidine]-2,2′,4′,6′,8′(3′H,7′H,9′H,10′H)-pentaone] had a melting point of more than 300 °C. The compound further came in with an IC50 in data set [2] of 291 ± 16.4 µg/mL (≈ 689 µM). In [3], this compound registered an IC50 of 259 ± 9.4 µg/mL (≈ 614 µM).
Consider `O=C1Nc2ccc(Cl)cc2C12c1c([nH]c(=O)[nH]c1=O)Nc1[nH]c(=O)[nH]c(=O)c12` [Compound 7e, 5-Chloro-1′H-spiro[indoline-3,5′-pyrido[2,3-d:6,5-d′]dipyrimidine]-2,2′,4′,6′,8′(3′H,7′H,-9′H,10′H)-pentaone], for which the IC50 in [1] came out at 89.7 ± 6.5 µg/mL (≈ 224 µM); in data set [7], 435 ± 39.5 µg/mL (≈ 1080 µM); in data set [3], 472 ± 23.6 µg/mL (≈ 1180 µM).
As to `CCn1c2c(c(=O)[nH]c1=O)C1(C(=O)Nc3ccc([N+](=O)[O-])cc31)c1c(n(CC)c(=O)[nH]c1=O)N2` [Compound 5b, 1′,9′-Diethyl-5-nitro-1′H-spiro[indoline-3,5′-pyrido[2,3-d:6,5-d′]dipyrimidine]-2,2′,4′,6′,8′(3′H,7′H,9′H,10′H)-pentaone], the IC50 amounted to 0.651 µM in data set [4], 114 ± 10.1 µg/mL (≈ 243 µM) in [1], 4.47 µM in [6] and 35.2 ± 4.1 µg/mL (≈ 75.3 µM) in [3]. The “formation of linear DNA” value in data set [5] is “considerable formation of linear DNA”.
Compound `Cn1c2c(c(=O)[nH]c1=S)C1(C(=O)Nc3ccc([N+](=O)[O-])cc31)c1c(n(C)c(=S)[nH]c1=O)N2` [Compound 5c, 1′,9′-Dimethyl-5-nitro-2′,8′-dithioxo-2′,3′,8′,9′-tetrahydro-1′H-spiro[indoline-3,5′-pyrido[2,3-d:6,5-d′]dipyrimidine]-2,4′,6′(7′H,10′H)-trione] came in with a melting point of more than 300 °C. The compound further came in with an IC50 in [1] of 250 ± 19.3 µg/mL (≈ 531 µM). For the same compound, the IC50 in data set [2] came out at 525 ± 50.6 µg/mL (≈ 1110 µM). Half-maximal inhibition in data set [7] (IC50) was put at 186 ± 19.4 µg/mL (≈ 394 µM). Moreover, the IC50 in data set [3] amounted to 247 ± 12.5 µg/mL (≈ 525 µM).
`COc1cccc2c1C(=O)c1c(O)c3c(c(O)c1C2=O)C[C@@](O)(C(=O)CO)C[C@@H]3O[C@H]1C[C@H](N)[C@H](O)[C@H](C)O1` [Dox, doxorubicin, reference compound]: the IC50 came to 0.3 ± 0.01 µg/mL (≈ 0.552 µM) in data set [1]; 0.04 ± 0.003 µg/mL (≈ 0.0736 µM) in data set [2]; 0.3 ± 0.01 µg/mL (≈ 0.552 µM) in [8]; 1.1 ± 0.1 µg/mL (≈ 2.02 µM) in data set [7]; 5.9 ± 0.5 µg/mL (≈ 10.9 µM) in data set [9]; 3.7 ± 0.2 µg/mL (≈ 6.81 µM) in data set [3].
`O=C1Nc2ccc([N+](=O)[O-])cc2C12c1c([nH]c(=O)[nH]c1=O)Nc1[nH]c(=O)[nH]c(=O)c12` [Compound 5e, 5-Nitro-1′H-spiro[indoline-3,5′-pyrido[2,3-d:6,5-d′]dipyrimidine]-2,2′,4′,6′,8′(3′H,7′H,9′H,10′H)-pentaone] had a melting point of more than 300 °C. This compound returned an IC50 in data set [1] of 147 ± 10.5 µg/mL (≈ 357 µM). The compound also displayed an IC50 in data set [3] of 233 ± 19.2 µg/mL (≈ 566 µM).
Compound `CCn1c2c(c(=O)[nH]c1=O)C1(C(=O)Nc3ccc(Cl)cc31)c1c(n(CC)c(=O)[nH]c1=O)N2` [Compound 7b, 5-Chloro-1′,9′-diethyl-1′H-spiro[indoline-3,5′-pyrido[2,3-d:6,5-d′]dipyrimidine]-2,2′,4′, 6′,8′(3′H,7′H,9′H,10′H)-pentaone] had a melting point of more than 300 °C. Besides, in data set [9], the IC50 worked out at 171 ± 22.8 µg/mL (≈ 374 µM).
On to `O=c1[nH]cc(F)c(=O)[nH]1` [Compound 5-FU, 5-fluorouracil, reference compound], for which the IC50 in [1] came to 103 ± 9.8 µg/mL (≈ 792 µM); in [2] it was 1.1 ± 0.1 µg/mL (≈ 8.46 µM); in [8], 103 ± 9.8 µg/mL (≈ 792 µM); in data set [7], 76.3 ± 6.8 µg/mL (≈ 587 µM); in data set [9], 39.3 ± 2.9 µg/mL (≈ 302 µM); in data set [3], 4.4 ± 0.3 µg/mL (≈ 33.8 µM).
